Reference: PMC12431657, “Discovery and mechanistic insights of dibenzoylmethane as a broad spectrum inhibitor of coronavirus” (PLOS Pathogens, 2025)
Values joined by “and” are separate entries in the source; they are usually repeats but may differ in a detail not shown here. Identical values can stand only once. Like-named read-outs stand apart in the source and are kept apart here.

Legend:
[1] = tested on: Huh-7 cells; design: unit not given beside the values
[2] = tested on: Huh-7 cells; assay: Cytotoxicity assay (CCK-8), Huh-7 cells
[3] = tested on: HCoV-OC43; assay: HCoV-OC43 replication in siRNA-transfected cells; assay type: cell-based; settings: replicates
[4] = tested on: RD cells; assay type: cell-based

| Molecule | CC50 (Huh-7): dose-response value per replicate [1] | selectivity index (SI) [2] | CC50 (Huh-7): dose-response value per replicate ([1]; human) | HCoV-OC43 replication in siRNA-transfected cells, inhibition [3] | Relative mRNA content following siRNA knockdown [4] |
| --- | --- | --- | --- | --- | --- |
| COc1c(CC=C(C)C)c(O)cc2oc(=O)c3c4ccc(O)cc4oc3c12 [neoglycyrol] | 37.8 | below 25 | – | – | – |
| COc1ccc2cc1Oc1ccc(cc1)C[C@H]1c3cc(c(OC)cc3CCN1C)Oc1c(OC)c(OC)cc3c1[C@H](C2)N(C)CC3 [tetrandrine] | – | below 25 | 114.8 | – | – |
| CASP3-2 (sense CCCUGGACAACAGUUAUAATT; antisense UUAUAACUGUUGUCCAGGGTT; chemistry not given here) | – | – | – | 3.7 and -8.9 and -0.3 and 15.3 and 18.4 and 14.9 | 0.000229 and 0.000196 and 0.000194 and 0.000282 and 0.000327 and 0.000307 |
| CASP7-1 (sense GUGCCAAGAUGCAAGAUCUTT; antisense AGAUCUUGCAUCUUGGCACTT; chemistry not given here) | – | – | – | -1.2 and -4.0 and -5.1 and 6.9 and -3.2 and 8.5 | 0.04453 and 0.02767 and 0.03038 and 0.03195 and 0.02491 and 0.0301 |
| CASP7-2 (sense GAGGAUUCAGCAAAUGAAGTT; antisense CUUCAUUUGCUGAAUCCUCTT; chemistry not given here) | – | – | – | -52.2 and -54.8 and -44.2 and 4.9 and 14.1 | 0.04124 and 0.03671 and 0.03839 and 0.05589 and 0.05554 and 0.05883 |
